Consider two compounds from ChEMBL document CHEMBL4699601, “5-Phenyl-1,3,4-oxadiazol-2(3H)-ones Are Potent Inhibitors of Notum Carboxylesterase Activity Identified by the Optimization of a Crystallographic Fragment Screening Hit” (J Med Chem, 2020).

In brackets after ≈: the same amount, converted by molar mass.

Data set [1] can be described thus: in vitro. To be noted: dog, MDCK-MDR1.
Data set [2] is described as follows: in vitro. The note with it: dog, MDCK-MDR1. The source holds these as a separate data set.
Data set [3] can be described thus: physchem. The note with it: buffer.
Data set [4] in a line: AUC (0 to t) in C57BL6 mouse brain at 10 mg/kg, po measured up to 24 hrs. The note with it: in vivo. The data set is classed as ADME, organism-based.
The nature of data set [5]: AUC (0 to t) in C57BL6 mouse plasma at 10 mg/kg, po measured up to 24 hrs. More on the design: route oral, dose 10 mg/kg, time <=24. The format is ADME, organism-based.
Data set [6] in a line: Cmax in C57BL6 mouse plasma at 10 mg/kg, po measured up to 24 hrs. The data set is classed as ADME, organism-based. More on the design: route oral, dose 10 mg/kg, time <=24.
The nature of data set [7]: Half life in C57BL6 mouse plasma at 10 mg/kg, po measured up to 24 hrs. The format is ADME, organism-based.
Data set [8] in a line: AUC (0 to infinity) in C57BL6 mouse brain at 10 mg/kg, po measured up to 24 hrs. To be noted: in vivo. Details: route oral, dose 10 mg/kg, time <=24. The format is ADME, organism-based.
Data set [9] is described as follows: Tmax in C57BL6 mouse plasma at 10 mg/kg, po measured up to 24 hrs. The format is ADME, organism-based.
Data set [10] can be described thus: physchem. The note with it: buffer, pH 7.4.
Data set [11] can be described thus: Tmax in C57BL6 mouse brain at 10 mg/kg, po measured up to 24 hrs. The data set is classed as ADME, organism-based.
Data set [12] can be described thus: Cmax in C57BL6 mouse brain at 10 mg/kg, po measured up to 24 hrs. Details: route oral, dose 10 mg/kg, time <=24. The format is ADME, organism-based.
Data set [13] in a line: AUC (0 to infinity) in C57BL6 mouse plasma at 10 mg/kg, po measured up to 24 hrs. The format is ADME, organism-based. Details: route oral, dose 10 mg/kg, time <=24.
A short description of data set [14]: Half life in C57BL6 mouse brain at 10 mg/kg, po measured up to 24 hrs. The data set is classed as ADME, organism-based.
A short description of data set [15]: Unbound brain-to-plasma concentration ratio in C57BL6 mouse plasma at 10 mg/kg, po measured up to 24 hrs. The note with it: brain and plasma, read-out: K(p,uu,brain). The data set is classed as ADME, organism-based.

Regarding `Oc1nnc(-c2ccc(Cl)c(C(F)(F)F)c2)s1`, the Papp A→B in the data set “in vitro [1]” was 45 ×10⁻⁶ cm/s. In addition, the basolateral-to-apical permeability (Papp B→A) in the data set “in vitro [2]” stood at 70 ×10⁻⁶ cm/s. The compound further showed a solubility in the data set “physchem [3]” of 22 µM (≈ 6.17 µg/mL).

In [4], `Oc1nnc(-c2ccc(Cl)c(C(F)(F)F)c2)o1` had an AUCt of 8870 ng·h/g. Further, the AUC(0-t) at 24 h in data set [5] came out at 50400 ng·h/mL. The Cmax in data set [6] was 16600 ng/mL; in data set [12] it was 2990 ng/g. The half-life in data set [7] is 3.7 h; in data set [14], 2.3 h. This compound showed an AUC in [8] of 9910 ng·h/g. The Papp A→B in the data set “in vitro [1]” was found to be 34 ×10⁻⁶ cm/s. Besides, the figures for the Tmax in data set [9] and in data set [11] were 0.5 h and 0.17 h, respectively. The logD in the data set “physchem [10]” is 2.6. The Papp B→A in “in vitro [2]” turned out to be 55 ×10⁻⁶ cm/s. Moreover, the concentration in solution in “physchem [3]” (solubility) was 710 µM (≈ 188 µg/mL). Further, in [13], the AUC(0-inf) was determined as 63100 ng·h/mL. The Kp uu at 24 h in data set [15] turned out to be 0.025.

One may read the Papp A→B as the apparent permeability from the apical to the basolateral side of a cell layer. Read a high Papp A→B as fast passage. Usually Papp B→A stands for the apparent permeability from the basolateral to the apical side of a cell layer. Broadly, the solubility is the dissolved amount per volume that the medium holds. A higher solubility goes with much dissolved substance. The AUC(0-t) is exposure summed from dosing to a finite time, without extrapolation to infinity. Low values mean less exposure, high ones more exposure. Broadly, the Cmax is the peak of the concentration-time curve. What is called half-life is how long it takes for the measured level to halve. Higher therefore signals slow loss. In general, Tmax refers to the time from dosing to the highest level. By logD is commonly meant the decadic logarithm of the distribution of all forms, ionised or not, between an organic phase and buffer at a given pH. The AUC(0-inf) is the area under the concentration-time curve extrapolated to infinity.
